# According to patent US20160015803A1, “IMMUNOSTIMULATORY COMBINATIONS AND USE THEREOF” (priority 2014, published 2016):
# Test system: markers of innate activation
# Experiment: in vivo activity, markers of innate activation after IV injection
# Conditions: Rhesus; 24-72 hours after IV injection
# Text: Based on these findings in mice we explored the potential for the use of polyIC-LC/αCD40 combination vaccination in non-human primates (NHP) in order to validate the clinical efficacy. Human anti-human CD40 (Kirin Pharmaceuticals) having the variable heavy and light sequences in the Sequence Listing were produced in cell culture. CD40 binding activity and agonistic activity was confirmed against both human and Rhesus Macaque PBMCs. In vivo activity in Rhesus was also confirmed by examining markers of innate activation 24-72 hours after IV antibody injection. PolyIC-LC was obtained from Oncovir Inc. and its activity was confirmed in vivo similar to the αCD40.
substance,measurement,value
PolyIC-LC,In vivo activity (markers of innate activation),confirmed
